Usually inhibition stands for the percentage by which the read-out fell short of the control. By viability is commonly meant a per cent measure of how many cells are alive, often set against a control. By pIC50 is commonly meant the IC50 on a negative log10 scale, so that one unit is a factor of ten.

The values that follow come from US20100279990A1, “ANTIPROLIFERATIVE COMPOUNDS, COMPOSITIONS AND METHODS OF USE” (RAMOT AT TEL-AVIV UNIVERSITY LTD., priority 2006, published 2010).

Series [1] relates to human Jurkat lymphoma cells. In words: Viability of human Jurkat lymphoma cells, alamar blue staining. In kind it is cell-based. As to conditions: for pIC50: Homo sapiens, 48 hr, alamar blue. How it is done: This example illustrates cell viability data derived from the incubation of a human. […] The results are depicted in FIGS. 1A, 1B, and 1C. […] See Nociari et al., J. Immunol. […] Each point represents the mean+/−SE of 4 determinations.
In general terms: Resazurin is reduced to fluorescent resorufin, in cell work by metabolically active cells.

The test system of series [2] is Con-A activated naive mouse splenocytes. Description: Con-A-induced mouse splenocyte proliferation, alamar blue staining. In kind it is cell-based. The source says: This example illustrates cell viability data obtained by separately administering different concentrations of compound (Ia), paroxetine, citalopram, and ecitalopram to Con-A activated naive mouse splenocytes. FIG. 3A depicts the comparative effect of compound (Ia), paroxetine, citalopram and ecitalopram on Con-A-induced mouse splenocyte proliferation using alamar blue staining after 48 hr. Each point represents the mean+/−SE of 5 determinations.

For series [3], the system named is human colon carcinoma cells (HT29). Description: HT29 human colon carcinoma s.c. tumor in Nude CD1 male mice. Type of series: in vivo. The source says:
This example illustrates the effect of several compounds, including an exemplary compound of the present invention, on tumor volume. tumor weight and body weight in mice. Nude CD1 male mice were purchased from Harlan (Israel). Animals were housed under controlled conditions (temperature, humidity) and were given food and water ad libitum. After one week of acclimatization animals were inoculated s.c. with human colon carcinoma cells (HT29) (2,000,000 cell/animals.). Therapy began 8 days after inoculation, at which time the animals were divided randomly into 4 groups (7-8 mice/group) and administered ip 3 times weekly for 4 weeks with the following compounds: […] Body weight and tumor volume were measured weekly. Tumor volume is defined as (shortest diameter)^2×(longest diameter)×0.5. At the end of the treatment, animals were sacrificed and tumors and organs collected and weighed.

Series [4] has as its system Jurkat Lymphoma cells. Description: Viability of Jurkat Lymphoma cells, combination with Doxorubicin. In kind it is cell-based. The conditions noted are these: Homo sapiens, Doxorubicin 20 μM alone, read-out: inhibition of cell viability.
Series [5] has as its system CEM/C1 human leukemia cells. Description: Cell proliferation of CEM/C1 human leukemia cells, 3H thymidine incorporation. In kind it is cell-based. As to conditions: for cell proliferation: 1 μM, 3H thymidine incorporation 24 hours; for inhibition at 10 µM: Homo sapiens, 3H thymidine incorporation; for effect on cell proliferation: already evident at 1 μM. How it is done: […] Cells, 10,000/well, were harvested and the incorporated radioactivity was determined by liquid scintillation in a beta counter.

The test system of series [6] is human colon carcinoma cells (HT29).
Series [7] shares this test system. In words: cells. As to conditions: HT-29, read-out: cell viability.
Series [8] concerns CEM/C1 cell-lines (camptothecin resistant human T-cell leukemia). Description: Viability of CEM/C1 cell-line, alamar blue. Type of series: cell-based. As to conditions: 1-30 μM. An excerpt:
This cell-line is a camptothecin (CPT) resistant derivative of the human T-cell leukemia purchased from ATCC (USA). […] The results are depicted in FIG. 14. Each point represents the mean+/−SEM of 4 determinations.

The test system of series [9] is human Jurkat lymphoma cells. In words: Viability of human Jurkat lymphoma cells, dexamethasone alone and in combination. Type of series: cell-based. As to conditions: Homo sapiens, 20 μM alone, FIG. 13B, read-out: inhibition of cell viability.
Series [10] relates to c-jun and p-c-jun expression in HaCat cells. In words: Western blot of c-jun and p-c-jun expression in HaCat cells. As to conditions: 15 μM, 1 hr. Type of series: cell-based, human. The source says:
For each sample 2×10^7 cells were used. The cells were lysed, and equal amounts of protein was fractionated on polyacrylamide gel and then transferred to PVDF membrane. The amount of the protein was detected by immuno-blotting with monoclonal anti-c-Jun or p-c-Jun antibodies (Cayman, Ann Arbor, Mich., USA). A second antibody conjugated to horseradish peroxidase was used and visualized with chemiluminescent Kit (Pierce, Rockford, Ill., USA) on film. […] Activation of the […] pathway produces p-c-Jun as a major end, while initiating apoptosis in certain cell-lines.

Series [11] has as its system Caspase 3 activity of LS1034 human colon MDR carcinoma cells. Description: Caspase-3 activity in LS1034 human colon MDR carcinoma cells. Type of series: cell-based. As to conditions: 10 or 20 μM, 4 hr after exposure. On the procedure:
Caspase 3 activity was measured by an enzymatic fluorimetric method using a fluorigenic substrate (Ac-DEVD-AMC), which produces blue fluorescence detected at 360 nm wavelength. […] When AMC is cleaved from the substrate by caspase-3, and caspase-3-like enzymes, it produces a yellow-green fluorescence, which can be monitored by a fluorimeter at 460 nm. The amount of yellow green fluorescence is proportional to the activity of caspase-3 in the cell extract sample.
Whole cell lysate was added to a buffer containing 100 μM peptide substrate, 100 mM HEPES, 10% glycerol, 1 mM EDTA and 10 mM dithiothreitol. Measurements were taken every 5 min for 80 min. These experiments were also monitored in the presence of a specific caspase-3 inhibitor, DEVD-AMC-CHO, which was added after 45 or 60 min to the reaction mixture, to ascertain the specificity of the enzyme.

In series [12] the test system is human glioma U87 cells. In words: Viability of human glioma U87 cell-line. In kind it is cell-based. As to conditions: FIG. 9.
Series [13] relates to human tumor cell lines. Description: In vitro antitumor activity in panel of 37 human tumor cell lines (Monolayer Assay, PI), summary. Type of series: cell-based. As to conditions: mean over human cancer cell-lines.
The test system of series [14] is human keratinocytes (HaCat cells). In words: Viability of human keratinocytes (HaCat cells), neutral red staining. Type of series: cell-based. The conditions noted are these: 24 hr, read-out: IC50, cell viability.
Where [15] appears, read: FIG. 1C, read-out: IC50, inhibition of cell viability.

pIC50: −log10 of the molar value. Like-named read-outs stand apart in the source and are kept apart here.

Consider `CN(C)CCC[C@@]1(c2ccc(F)cc2)OCc2cc(C#N)ccc21` [ecitalopram, reference compound], for which the “effect on cell viability” value in series [1] (low concentrations (2.5 and 5.0 μM), FIG. 1A) is “slight decrease in cell-viability”. Besides, the effect on cell-viability result in series [2] (up to 30 μM) is given as “no effect on cell-viability”.

Turning to `O=c1[nH]cc(F)c(=O)[nH]1` [5 FU, fluorouracil, reference compound], in series [3] (HT29 tumor in nude mice, ip 3 times weekly, after 3 and 4 weeks of therapy, FIG. 16), the tumor volume entry is listed as “significantly decreased compared to the control groups”.

Consider `COc1cccc2c1C(=O)c1c(O)c3c(c(O)c1C2=O)C[C@@](O)(C(=O)CO)C[C@@H]3O[C@H]1C[C@H](N)[C@H](O)[C@H](C)O1` [doxorubicin, reference compound], for which, in series [4], the cytotoxicity at 20 µM was 54%. Further, in series [5], the cell proliferation is recorded as 65.7 % of controls and the inhibition at 10 µM is approximately 95%. In series [6] (10 and 20 μM, FIG. 2A), the “effect on cell viability compared with the antidepressants and compound (Ia)” value is “more pronounced than that produced by the antidepressants and compound (Ia)”. Further, the viability at 30 µM in series [7] amounted to 57.7%.

As for `CN[C@H]1CC[C@@H](c2ccc(Cl)c(Cl)c2)c2ccc(C#CCCCOC)cc21.Cl` [compound (Ic), (1S-cis)-4-(3,4-dichlorophenyl)-7-(5-methoxy-1-pentyn-1-yl)-1,2,3,4-tetrahydro-N-methyl-1-naphthalenamine hydrochloride], the pIC50 was 4.77 in [1] (FIG. 1B, read-out: IC50, decrease in cell viability) and 4.87 in series [8]. Further, the “potency compared with sertraline” value in series [1] (lower concentrations (1-10 μM), FIG. 1B) is listed as “higher potency than sertraline”. This molecule also had an inhibition at 10 µM in series [5] of approximately 95%. The “effect on cell proliferation” value in series [5] is “dose dependent decrease in cell proliferation”.

Turning to `OCCCC#Cc1cc2c(cc1OC[C@@H]1CNCC[C@H]1c1ccc(F)cc1)OCO2` [compound (Ib), (3S-trans)-3-((6-(5-hydroxy-1-pentyn-1-yl)-1,3-benzodioxol-5-yloxy)methyl)-4-(4-fluorophenyl)-piperidine], the pIC50 in series [1] (setting [15]) was 4.71. Also, the “potency compared with paroxetine” value in [1] (concentrations higher than 5 μM, FIG. 1C) is listed as “higher potency than paroxetine”. The same molecule showed a pIC50 in series [8] of 5.12. Besides, in [5], the “effect compared to sertraline and paroxetine” value was “significantly higher effects compared to sertraline and paroxetine”; the cell proliferation is 43.6 % of controls; the “effect on cell proliferation” value was “dose dependent decrease in cell proliferation”.

Consider `C[C@@H]1C[C@H]2[C@@H]3CCC4=CC(=O)C=C[C@]4(C)[C@@]3(F)[C@@H](O)C[C@]2(C)[C@@]1(O)C(=O)CO` [dexamethasone, reference compound], for which the cytotoxicity at 20 µM in [9] was 8%.

In the case of `CN[C@H]1CC[C@@H](c2ccc(Cl)c(Cl)c2)c2ccccc21` [sertraline], the “effect on c-Jun / p-c-Jun (MAPK pathway)” value in [10] is given as “activation of the c-Jun-N-terminal kinase (JNK) pathway”. In addition, the caspase-3 activity result in [11] is “dose dependent increase in the activity of caspase-3”. Further, in series [12], the “effect on cell viability” value was “inhibit this glioma cell-line in a dose dependant fashion” and the “efficacy compared with paroxetine” value is “higher efficacy than paroxetine”. In series [13], the “mean IC70” value stood at 13 µM. The “decrease in body weight” value in [3] (compared to 5 FU or controls, FIG. 18) came out at 10%. The “histopathological assessment of spleen, liver and kidney” value in series [3] (end of treatment) is “change in capsule fibrosis at random”. Further, the “potency compared with paroxetine” value in [6] (10-30 μM, FIG. 2A) was “higher potency than paroxetine”. In series [6] (equimolar doses, FIG. 2B), the “potency compared with paroxetine and fluoxetine” value was “significantly more potent than paroxetine and fluoxetine”. Also, the viability at 30 µM in [7] stood at 60.3%.

In the case of `Fc1ccc([C@@H]2CCNC[C@H]2COc2ccc3c(c2)OCO3)cc1` [paroxetine, reference compound], the pIC50 was 4.42 in series [1] (FIG. 1A, read-out: IC50, anti-proliferative activity); 4.42 in series [1] (setting [15]); 4.92 in [2] (Splenocyte, 48 hr, alamar blue, read-out: IC50, inhibition in cell viability); 4.80 in [14]; 4.91 in [8]. For the same molecule, the caspase-3 activity result in series [11] is recorded as “dose dependent increase in the activity of caspase-3”. Moreover, the “effect on cell viability” value in series [12] is “inhibit this glioma cell-line in a dose dependant fashion”. Moreover, the viability at 30 µM in series [7] was found to be 74%.
